How the values were obtained:
[1] = test system: LN229 TMZ-resistant glioma cell line; test: IncuCyte live cell imaging proliferation assay; type: cell-based
Protocol: (§1) FIG. 2A is a graph showing relative growth of temozolomide (TMZ)-resistant glioma cells (LN229 cells) alone (control); after treatment with 100 micromolar (μM) TMZ; after treatment with a Brahma-related gene-1 bromodomain inhibitor (BRI), PFI-3 (1 μM); or after treatment with both TMZ and PFI-3 (combined).
as §1, with “2B” for “2A”, “IV-073” for “PFI-3”
as §1, with “2C” for “2A”, “LN229 Temozolomide” for “temozolomide”, “cells” for “cells (LN229 cells)”, “IV-077” for “PFI-3”
as §1, with “2D” for “2A”, “LN229 Temozolomide” for “temozolomide”, “cells” for “cells (LN229 cells)”, “IV-085” for “PFI-3”
To determine whether PFI-3 (also called YH-IV-081) and its analogs (referred to herein as “PAs”) enhanced TMZ sensitivity IncuCyte live cell imaging proliferation assays (high throughput system) were performed with the LN229 TMZ-resistant glioma cell line.

GBM cells [2] = test: survival of mice after intracranial injection of GBM cells; type: in vivo; conditions: combination with TMZ, intraperitoneal, 10 mg/kg body weight
Protocol: FIG. 6 is a graph showing the survival curves (percent survival versus days after treatment) of mice after intracranial injection of glioblastoma (GBM) cells and intraperitoneal injection of temozolomide (TMZ) or combinations of TMZ and a Brahma-related gene-1 bromodomain inhibitors (BRIs): PFI-3 or one of the presently disclosed PFI-3 analogs (PAs) IV-073 or IV-085. Five mice per group were treated with TMZ with or without the BRI (10 milligrams per kilogram (mg/kg) body weight.
TMZ with or without a BRI was also tested in mice after intercranial injection of GBM cells.

GBM cells [3] = test: overall statements on GBM cell death and sensitization to TMZ; type: cell-based
From the text: The syntheses of two exemplary PA BRIs, referred to herein as YH-IV-073 (or IV-073), and YH-IV-077 (or IV-077), as well as of PFI-3 (also referred to herein as YH-IV-081), are shown in Scheme 2, below. As shown in Scheme 2, commercially available tert-butyloxycarbonyl (BOC)-protected amine 1 is contacted with 2-bromopyridine (2) to form intermediate 3. The protecting group can be removed (e.g., via hydrolysis) to give the corresponding amine 4. Compound 4 can be coupled with a carboxylic acid (5, 6, or 7) to afford target YH-IV-073, YH-IV-077 and YH-IV-081, respectively. […] These analogs will provide greater insight into the importance of substitution of the A ring.
The synthetic route shown in Scheme 3, below, was used to synthesize new analogs with different substituents in the 2-position of the A-ring, such as YH-IV-085. As shown in Scheme 3, a commercially available 1-phenylprop-2-yn-1-one (e.g., 8 or 9) can be reacted with BOC-protected amine compound 1 to afford a BOC-protected intermediate (e.g., 10 or 11), which can be hydrolyzed to provide corresponding deprotected intermediate (12 or 13). The intermediates can be coupled with the 2-bromopyridine (2) to yield target compounds (e.g., 14 or YH-IV-085), respectively. YH-IV-085 is believed to be the first PFI-3 analog prepared without a 2-hydroxy moiety in the A-ring.

O=C(/C=C/N1C[C@H]2C[C@@H]1CN2c1ccccn1)c1ccccc1O [PFI-3, (E)-1-(2-hydroxyphenyl)-3-((1R,4R)-5-(pyridin-2-yl)-2,5-diazabicyclo[2.2.1]heptan-2-yl)prop-2-en-1-one]
sensitization to TMZ ([1]; BRI 1 μM combined with 100 μM TMZ): potently sensitized | effect on cell growth ([1]; BRI alone (1 μM)): relatively minor effects on cell growth | animal survival (GBM cells [2]): enhanced animal survival | sensitizing GBM cells to DNA alkylation by TMZ (GBM cells [3]; also in cells resistant to DNA alkylation agents): capable of sensitizing GBM cells | GBM cell death (GBM cells [3]; used alone): do not cause GBM cell death

Reference: patent US12329755B2, “Bromodomain inhibitors to target therapy-resistant cancer” (University of Tennessee Research Foundation, priority 2019, dated 2025)
